Experimental findings from PubChem BioAssay AID330 (DTP/NCI, 2004) are described below.

This experiment has as its system P388 leukemia ip, CD2F1 mice, survival T/C. Kind of experiment: NCI In Vivo Anticancer Drug Screen. Data for tumor model P388 Leukemia (intraperitoneal) in CD2F1 (CDF1) mice. Particulars: endpoint: median survival time, higher = longer survival. The method in brief:
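Mice carrying the transplanted tumor received test compound or vehicle. Survival was recorded in each group, and the value is the treated-group measurement divided by that of the vehicle-treated control group.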

The mark [1] stands for this setting: dose: 50.0 mg/kg/injection, schedule: Q01DX009 (ip), vehicle: saline.
The mark [2] stands for this setting: dose: 100.0 mg/kg/injection, schedule: Q01DX009 (ip), vehicle: saline.
Where [3] appears, read: dose: 200.0 mg/kg/injection, schedule: Q01DX009 (ip), vehicle: saline.
Where [4] appears, read: dose: 50.0 mg/kg/injection, schedule: Q04DX002 (ip), vehicle: Klucel (hydroxypropylcellulose) (HPC).
Where [5] appears, read: dose: 100.0 mg/kg/injection, schedule: Q04DX002 (ip), vehicle: Klucel (hydroxypropylcellulose) (HPC).
[6] abbreviates: dose: 50.0 mg/kg/injection, schedule: Q01DX009 (ip), vehicle: Klucel (hydroxypropylcellulose) (HPC).
Setting [7] is: dose: 100.0 mg/kg/injection, schedule: Q01DX009 (ip), vehicle: Klucel (hydroxypropylcellulose) (HPC).
Setting [8] is: dose: 50.0 mg/kg/injection, schedule: Q01DX005 (ip), vehicle: saline with Tween-80.
[9] abbreviates: dose: 100.0 mg/kg/injection, schedule: Q01DX005 (ip), vehicle: saline with Tween-80.
Setting [10] is: dose: 200.0 mg/kg/injection, schedule: Q01DX005 (ip), vehicle: saline with Tween-80.

Values joined by “and” are separate entries in the source; they are usually repeats but may differ in a detail not shown here. Identical values can stand only once. Toxic doses and inconclusive results are not listed.

Consider `COC1CC(N)C(OS(C)(=O)=O)C(C)O1` (stereo not drawn), for which the T/C is, setting by setting: (dose: 12.5 mg/kg/injection, schedule: Q04DX003 (ip), vehicle: water) 99 % of control; (dose: 25.0 mg/kg/injection, schedule: Q04DX003 (ip), vehicle: water) 99 % of control; (dose: 50.0 mg/kg/injection, schedule: Q04DX003 (ip), vehicle: water) 114 % of control; (dose: 100.0 mg/kg/injection, schedule: Q04DX003 (ip), vehicle: water) 114 % of control; (dose: 200.0 mg/kg/injection, schedule: Q04DX003 (ip), vehicle: water) 105 % of control.
As for `Cc1ccc2nccnc2c1`, the T/C is, setting by setting: under setting [1], 101 % of control; under setting [2], 99 % of control; under setting [3], 101 % of control; (dose: 400.0 mg/kg/injection, schedule: Q01DX009 (ip), vehicle: saline) 100 % of control.
Regarding `CCCCCCC(=O)/C=C/c1ccc(OS(=O)(=O)c2ccccc2)cc1`, the T/C is 105 % of control (dose: 50.0 mg/kg/injection, schedule: Q01DX009 (ip), vehicle: saline with Tween-80); 100 % of control (dose: 100.0 mg/kg/injection, schedule: Q01DX009 (ip), vehicle: saline with Tween-80); 101 % of control (dose: 200.0 mg/kg/injection, schedule: Q01DX009 (ip), vehicle: saline with Tween-80).
As to `Clc1ccc(-c2cc(-c3cc(-c4ccc(Cl)cc4Cl)n[nH]3)[nH]n2)c(Cl)c1`, the T/C runs as follows: (dose: 60.0 mg/kg/injection, schedule: Q01DX005 (ip), vehicle: Klucel + Tween-80) 100 % of control; (dose: 120.0 mg/kg/injection, schedule: Q01DX005 (ip), vehicle: Klucel + Tween-80) 98 % of control; (dose: 240.0 mg/kg/injection, schedule: Q01DX005 (ip), vehicle: Klucel + Tween-80) 90 % of control.
With `CN(C)CCNc1ccc(NCCNCCO)c2c1C(=O)c1ccccc1C2=O`, the T/C (dose: 10.0 mg/kg/injection, schedule: Q04DX002 (ip), vehicle: saline) was 151 % of control; the T/C (dose: 20.0 mg/kg/injection, schedule: Q04DX002 (ip), vehicle: saline) was 173 % of control; the T/C (dose: 40.0 mg/kg/injection, schedule: Q04DX002 (ip), vehicle: saline) is 192 % of control; the T/C (dose: 80.0 mg/kg/injection, schedule: Q04DX002 (ip), vehicle: saline) was 192 % of control.
Consider `CN(C)CCO[Si](C)(C)C[Si](C)(C)OCCN(C)C`, for which the T/C runs as follows: (dose: 60.0 mg/kg/injection, schedule: Q01DX005 (ip), vehicle: saline) 107 % of control; (dose: 120.0 mg/kg/injection, schedule: Q01DX005 (ip), vehicle: saline) 102 % of control; (dose: 240.0 mg/kg/injection, schedule: Q01DX005 (ip), vehicle: saline) 108 % of control.
Take `COC(=O)c1cc(=O)n(-c2ccccc2OC)c(SC)n1`: the T/C is, setting by setting: (dose: 25.0 mg/kg/injection, schedule: Q04DX002 (ip), vehicle: Klucel (hydroxypropylcellulose) (HPC)) 110 % of control; under setting [4], 100 % of control; under setting [5], 103 % of control.
For the compound `COC(=O)C1Cc2c([nH]c3ccccc23)C2CCC(=O)N12` (stereo not drawn), the T/C runs as follows: under setting [6], 108 % of control; under setting [7], 100 % of control; (dose: 200.0 mg/kg/injection, schedule: Q01DX009 (ip), vehicle: Klucel (hydroxypropylcellulose) (HPC)) 104 % of control.
Take `Cn1nc(C(N)=O)c(=O)[nH]c1=S`: the T/C is 100 % of control under setting [8], 99 % of control under setting [9] and 103 % of control under setting [10].
Taken in the same sequence, the figures for `Cc1ccc(S(=O)(=O)Oc2ccc3oc4cccc(NCCN(C)C)c4c(=O)c3c2)cc1` were 95 % of control, 97 % of control and 93 % of control.
`CC(=O)Nc1ccc(S(=O)(=O)Nc2ccc3[nH]c(=O)oc3c2)cc1`: the T/C was 104 % of control under setting [4]; 97 % of control under setting [5]; 97 % of control (dose: 200.0 mg/kg/injection, schedule: Q04DX002 (ip), vehicle: Klucel (hydroxypropylcellulose) (HPC)).
With `CC1(C)C2(C(N)=O)C(=O)NC(=O)C12C(=O)O` (stereo not drawn), the T/C was 95 % of control (dose: 25.0 mg/kg/injection, schedule: Q04DX002 (ip), vehicle: saline with Tween-80); 104 % of control (dose: 50.0 mg/kg/injection, schedule: Q04DX002 (ip), vehicle: saline with Tween-80); 103 % of control (dose: 100.0 mg/kg/injection, schedule: Q04DX002 (ip), vehicle: saline with Tween-80).
For `CCOC(=O)c1c(C(=O)Nc2ccccc2)c(-c2ccccc2)n(NC(N)=O)c1C`, the T/C runs as follows: under setting [8], 104 % of control; under setting [9], 105 % of control; under setting [10], 98 % of control.
For the compound `CCOC(=O)Nc1cc2c(cn1)[nH]c1ccccc12`, the T/C was 105 % of control (dose: 60.0 mg/kg/injection, schedule: Q01DX005 (ip), vehicle: saline with Tween-80); 114 % of control (dose: 120.0 mg/kg/injection, schedule: Q01DX005 (ip), vehicle: saline with Tween-80); 112 % of control (dose: 240.0 mg/kg/injection, schedule: Q01DX005 (ip), vehicle: saline with Tween-80).
For the compound `NC(=O)OCCCCOC(N)=O`, the T/C was 100 % of control under setting [6] and 98 % of control under setting [7].
In the case of `C[CH2][Sn]([Cl])([Cl])[CH2]C.c1ccc2nc(-c3ccc4ccccc4n3)ccc2c1`, the T/C was 106 % of control (dose: 60.0 mg/kg/injection, schedule: Q01DX005 (ip), vehicle: Klucel (hydroxypropylcellulose) (HPC)); 106 % of control (dose: 120.0 mg/kg/injection, schedule: Q01DX005 (ip), vehicle: Klucel (hydroxypropylcellulose) (HPC)); 103 % of control (dose: 240.0 mg/kg/injection, schedule: Q01DX005 (ip), vehicle: Klucel (hydroxypropylcellulose) (HPC)).
For the compound `CCO/C=C1\CC(=O)N(c2ccc(F)c(Cl)c2)C1=O`, the T/C is 100 % of control (dose: 25.0 mg/kg/injection, schedule: Q01DX001 (ip), vehicle: saline with Tween-80); 100 % of control (dose: 50.0 mg/kg/injection, schedule: Q01DX001 (ip), vehicle: saline with Tween-80); 98 % of control and 100 % of control (dose: 100.0 mg/kg/injection, schedule: Q01DX001 (ip), vehicle: saline with Tween-80); 109 % of control (dose: 200.0 mg/kg/injection, schedule: Q01DX001 (ip), vehicle: saline with Tween-80); 100 % of control (dose: 400.0 mg/kg/injection, schedule: Q01DX001 (ip), vehicle: saline with Tween-80).
With `FS(F)(F)(F)(F)c1cccc(NC(=S)SCc2ccc(Cl)cc2)c1`, the T/C is, setting by setting: under setting [1], 100 % of control; under setting [2], 101 % of control and 95 % of control; under setting [3], 107 % of control and 118 % of control.
As for `CCOP(=O)(O)C1CCCC(C)[N-]1.CCOP(=O)(O)C1CCCC(C)[N-]1.[Co+2]` (stereo not drawn), the T/C was 107 % of control (dose: 25.0 mg/kg/injection, schedule: Q04DX003 (ip), vehicle: Klucel (hydroxypropylcellulose) (HPC)); 95 % of control (dose: 50.0 mg/kg/injection, schedule: Q04DX003 (ip), vehicle: Klucel (hydroxypropylcellulose) (HPC)); 99 % of control and 105 % of control (dose: 100.0 mg/kg/injection, schedule: Q04DX003 (ip), vehicle: Klucel (hydroxypropylcellulose) (HPC)).
`NC(=O)CC1=Cc2c(ccc3ccc(O)cc23)C1`: the T/C was 97 % of control (dose: 12.5 mg/kg/injection, schedule: Q01DX009 (ip), vehicle: distilled water + Tween-80); 91 % of control (dose: 25.0 mg/kg/injection, schedule: Q01DX009 (ip), vehicle: distilled water + Tween-80); 102 % of control (dose: 50.0 mg/kg/injection, schedule: Q01DX009 (ip), vehicle: distilled water + Tween-80); 93 % of control (dose: 100.0 mg/kg/injection, schedule: Q01DX009 (ip), vehicle: distilled water + Tween-80); 90 % of control (dose: 200.0 mg/kg/injection, schedule: Q01DX009 (ip), vehicle: distilled water + Tween-80).
`O=C(C=C(C(F)(F)F)C(F)(F)F)c1ccc(F)cc1`: the T/C is, setting by setting: (dose: 6.25 mg/kg/injection, schedule: Q04DX003 (ip), vehicle: other) 109 % of control; (dose: 12.5 mg/kg/injection, schedule: Q04DX003 (ip), vehicle: other) 104 % of control; (dose: 16.5 mg/kg/injection, schedule: Q01DX009 (ip), vehicle: saline + alcohol) 110 % of control; (dose: 25.0 mg/kg/injection, schedule: Q01DX009 (ip), vehicle: saline + alcohol) 106 % of control; (dose: 25.0 mg/kg/injection, schedule: Q04DX003 (ip), vehicle: other) 118 % of control; (dose: 37.5 mg/kg/injection, schedule: Q01DX009 (ip), vehicle: saline + alcohol) 109 % of control.
